Each structure is given as a SMILES string. Active and inactive are the calls of the source. No cut-off for these calls is given here. Where only a bound is given, the exact number is not on record here.

The test system of series [1] is Marburgvirus. Type of series: functional, organism-based. The settings on record: Orthomarburgvirus, Angola, A549, 24 h.
Series [2] in a line: in vitro. The settings on record: human, A549 cells.
Series [3] is described as follows: in vitro. The settings on record: human, A549 cells. This is another data set of the same source.
Series [4] concerns Zaire ebolavirus. Description: microbe, parasite or virus in culture. The settings on record: Mayinga, Zaire, 1976, A549, 48 h.
Series [5] has as its system Marburgvirus. Put plainly: microbe, parasite or virus in culture. The settings on record: Orthomarburgvirus, Musoke, A549, 48 h.
The test system of series [6] is Ebolavirus. Description: Antiviral activity against Ebolavirus (pBDBV) assessed as inhibition of viral entry. Type of series: functional, organism-based.
Series [7] deals with Mengla dianlovirus. Description: Antiviral activity against Mengla-virus assessed as inhibition of viral entry. It is filed as functional.
The test system of series [8] is Ebolavirus. Put plainly: Antiviral activity against Ebolavirus Tai Forest assessed as inhibition of viral entry. It is filed as functional, organism-based.
For series [9], the system named is Ebolavirus. Description: Antiviral activity against Ebolavirus (pRESTV) assessed as inhibition of viral entry. It is filed as functional, organism-based.
For series [10], the system named is Vesicular stomatitis virus. Description: Antiviral activity against vesicular stomatitis virus assessed as inhibition of viral entry. Type of series: functional, organism-based.
The test system of series [11] is Influenza A virus. Put plainly: Antiviral activity against Influenza A virus H5N1 assessed as inhibition of viral entry. Type of series: functional, organism-based.
The target in series [12] is T1, Estrogen receptor (Homo sapiens) (UniProt P03372).
T1 sequence (whole entry): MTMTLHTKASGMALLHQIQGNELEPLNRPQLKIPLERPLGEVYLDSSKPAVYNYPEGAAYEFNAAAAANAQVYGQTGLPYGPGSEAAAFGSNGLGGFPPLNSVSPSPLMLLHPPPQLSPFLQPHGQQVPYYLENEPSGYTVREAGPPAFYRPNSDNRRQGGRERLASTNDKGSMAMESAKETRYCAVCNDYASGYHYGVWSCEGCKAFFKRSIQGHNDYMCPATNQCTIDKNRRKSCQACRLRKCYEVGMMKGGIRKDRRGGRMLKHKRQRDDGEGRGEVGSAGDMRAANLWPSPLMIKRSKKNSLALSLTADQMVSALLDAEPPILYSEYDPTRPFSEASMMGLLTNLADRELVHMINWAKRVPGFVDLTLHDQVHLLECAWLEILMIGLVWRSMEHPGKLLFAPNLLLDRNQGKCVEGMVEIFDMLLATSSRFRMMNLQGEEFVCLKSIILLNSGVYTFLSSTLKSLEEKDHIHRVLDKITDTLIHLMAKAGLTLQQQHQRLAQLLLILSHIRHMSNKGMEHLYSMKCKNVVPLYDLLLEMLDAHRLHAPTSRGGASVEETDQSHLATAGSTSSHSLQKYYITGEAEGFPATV
Put plainly: Agonist activity at ER-alpha in human MCF-7:WS8 cells transfected with an estrogen response element incubated for 18 hrs by luciferase reporter gene assay. The settings on record: MCF7. It is filed as cell-based. In general terms: In a reporter assay the amount or activity of a reporter protein is the signal.

The target in series [13] is T1, Estrogen receptor (Homo sapiens). Description: Antagonist activity at ER-alpha in human MCF-7:WS8 cells transfected with an estrogen response element assessed as suppression of estrogen-induced response incubated for 18 hrs by luciferase reporter gene assay. Type of series: cell-based. The settings on record: MCF7.
Series [14] has as its system A549. It is filed as cell-based. The settings on record: human.

Usually IC50 stands for the concentration needed to halve the response being measured. A higher IC50 goes with a need for much substance. As for `COc1ccc2c(c1)CCC(c1ccccc1)=C2c1ccc(OCCN2CCCC2)cc1` [NAFOXIDINE], the results for the concentration for half-maximal inhibition (IC50) in series [1], in [4] and in series [5] were above 6250 nM, 100 nM and 1300 nM, respectively. In addition, the selectivity ratio in series [2] was 6; in [3], 82.
As to `Cc1c(-c2ccc(O)cc2)n(Cc2ccc(OCCN3CCCCCC3)cc2)c2ccc(O)cc12` [BAZEDOXIFENE], the selectivity ratio in [2] worked out at 6; in series [3], 10. Also, the IC50 in series [4] turned out to be 2240 nM; in [5], 3830 nM.
Consider `CC/C(=C(/c1ccc(NC(=O)CN2CCOCC2)cc1)c1ccc(OCCN2CCOCC2)cc1)c1ccccc1`, for which the figures for the concentration for half-maximal inhibition (IC50) in [1], in [4] and in [5] were 3240 nM, 740 nM and 4230 nM, respectively. For the same compound, the selectivity ratio in series [2] turned out to be 13; in series [3], 40.
As for `CCC(c1ccccc1)C(O)(c1ccc(OCCN(C)C)cc1)c1cccc(O)c1` (centres undefined), the figures for the selectivity ratio in series [2] and in series [3] were 9 and 22, respectively. Further, the IC50 was determined as 1740 nM in series [4] and 4400 nM in series [5].
On to `CCNCCc1ccc(CN(CC)c2cc(OC)ccc2[C@@H]2CCc3cc(O)ccc3C2)cc1` [ELACESTRANT], for which the selectivity ratio worked out at 8 in series [2] and 44 in series [3]. Also, the half-maximal inhibitory concentration (IC50) in series [4] is 240 nM; in [5], 1300 nM.
The corresponding values for `Cc1c(-c2ccc(O)cc2)nn(-c2ccc(O)cc2)c1-c1ccc(OCCN2CCCCC2)cc1` are 12, 11, 1310 nM and 1190 nM.
As to `CC1=C(c2ccc(O)cc2)[C@H](c2ccc(OCCN3CCCCC3)cc2)Oc2ccccc21`, the selectivity ratio in series [2] was found to be 19; in series [3], 11. Moreover, the figures for the IC50 in [4] and in [5] were 1500 nM and 900 nM, respectively.
Take `CC/C(=C(/c1ccc(NC(=O)CC2CCN(C)CC2)cc1)c1ccc(OCCN2CCCC2)cc1)c1ccccc1`: the IC50 in [1] is 870 nM; in series [4], 6 nM; in series [5], 620 nM. In addition, the selectivity ratio in series [2] is 33; in series [3], 1400.
As for `CN(C)CCOc1ccc(/C(=C(/CCCl)c2ccccc2)c2ccccc2)cc1` [TOREMIFENE], the inhibition entry in series [6], in series [7], in series [8] and in [9] was “Active” each time. Besides, the values for the IC50 in series [1], in series [4] and in series [5] were 3900 nM, 70 nM and 2600 nM, respectively. Moreover, the selectivity ratio in [2] is 6; in [3], 229.
As for `COc1ccc(-c2sc3cc(OC)ccc3c2Oc2ccc(OCCN3CCC(CCNC(=O)CCCCNC(=O)OC(C)(C)C)CC3)cc2)cc1`, the figures for the selectivity ratio in series [2] and in series [3] were 76 and 57, respectively. Moreover, the IC50 in [4] is 800 nM; in [5] it was 600 nM.
On to `CC/C(=C(/c1ccc(NC(=O)CN2CCOCC2)cc1)c1ccc(OCCN2CCCC2)cc1)c1ccccc1`, for which the IC50 in [1] was determined as 2800 nM; in [4], 350 nM; in series [5], 1210 nM. Moreover, the selectivity ratio was 14 in series [2] and 47 in [3].
For `CC/C(=C(/c1ccc(NC(=O)CN2CCN(C)CC2)cc1)c1ccc(OCCN2CCCC2)cc1)c1ccccc1`, in that order: 360 nM, 10 nM, 420 nM, 7 and 1400.
As to `CC/C(=C(/c1ccc(N)cc1)c1ccc(OCCN2CCCC2)cc1)c1ccccc1`, the IC50 in series [1] is 1780 nM; in [4], 130 nM; in series [5], 1070 nM. For the same compound, the selectivity ratio in series [2] stood at 13; in series [3] it was 147.
The corresponding values for `CC/C(=C(/c1ccc(NCCN2CCOCC2)cc1)c1ccc(OCCN2CCOCC2)cc1)c1ccccc1` are 2900 nM, 230 nM, 2180 nM, below 2 and 111.
Regarding `Oc1ccc2c(Oc3ccc(OCCN4CCCCC4)cc3)c(-c3ccc(F)cc3)sc2c1`, the selectivity ratio in series [2] amounted to 7; in series [3], 15. The IC50 in series [4] was 980 nM; in [5] it was 2040 nM.
For the compound `CC/C(=C(/c1ccc(NC(=O)C2CCN(C3CCN(C)CC3)CC2)cc1)c1ccc(OCCN2CCCC2)cc1)c1ccccc1`, the concentration for half-maximal inhibition (IC50) in series [1] turned out to be 1070 nM; in series [4], 180 nM; in series [5], 2050 nM. For the same compound, the selectivity ratio in series [2] amounted to 16; in series [3] it was 79.
`CC/C(=C(/c1ccc(NC(=O)C2CCN(C)CC2)cc1)c1ccc(OCCN2CCCC2)cc1)c1ccccc1`: the inhibition entry in [10], in [11] and in series [13] was “inactive” throughout. The inhibition entry in series [6], in series [7], in [8] and in series [9] was “Active” in each case. Further, in [12], the result was inactive. For the same compound, the IC50 is 640 nM in series [1], 10 nM in series [4] and 540 nM in series [5]. In addition, the results for the selectivity ratio in [2] and in [3] were 12 and 590, respectively.
In the case of `CC/C(=C(/c1ccc(NCCN2CCCC2)cc1)c1ccc(OCCN2CCCC2)cc1)c1ccccc1`, the IC50 was above 25000 nM in [1], 330 nM in [4] and above 12500 nM in series [5]. Also, the selectivity ratio was found to be 18 in series [2] and 79 in [3].
With `Nc1ccc(-c2sc3cc(O)ccc3c2Oc2ccc(OCCN3CCCCC3)cc2)cc1`, the outcome in [12] was inactive. Moreover, the half-inhibitory concentration (IC50) in [1] is above 6250 nM; in series [4], 130 nM; in [5], 1450 nM. Moreover, the selectivity ratio in series [2] was above 69; in series [3], above 770.
Take `COc1ccc2c(Oc3ccc(OCCN4CCCCC4)cc3)c(-c3ccc(Br)cc3)[s+]([O-])c2c1` (centres undefined): the selectivity ratio is above 55 in series [2] and above 47 in series [3]. Also, the IC50 in series [4] stood at 2140 nM; in [5] it was 1810 nM.
As usually defined, the CC50 is the concentration that lowers cell viability or growth by half. Consider `CCC(=C(c1ccc(OCCN2CCCC2)cc1)c1ccc(OCCN2CCCC2)cc1)c1ccccc1`, for which, in series [12], the outcome was inactive. For the same compound, it took 8100 nM to reach half-maximal cytotoxicity in series [14] (CC50). In addition, the results for the IC50 in [1], in series [4] and in series [5] were 1560 nM, 20 nM and 610 nM, respectively. Further, the figures for the selectivity ratio in series [2] and in [3] were 13 and 405, respectively.
For `Cc1cc(F)cc(C)c1C(=O)c1sc2cc(O)ccc2c1Oc1ccc(OCCN2CC(CF)C2)cc1`, the selectivity ratio in series [2] amounted to 15; in series [3], 21. Also, the results for the IC50 in series [4] and in series [5] were 1320 nM and 1870 nM, respectively.
The corresponding values for `OCCOc1ccc(/C(=C(/CCCl)c2ccccc2)c2ccccc2)cc1` [OSPEMIFENE] are below 1, 7, 3800 nM and 34400 nM.
The corresponding values for `COc1ccc2c(Oc3ccc(OCCN4CCCCC4)cc3)c(-c3ccc(Br)cc3)sc2c1` are 37, 74, 630 nM and 1250 nM.
For the compound `Cc1ccccc1C(=O)c1sc2cc(O)ccc2c1Oc1ccc(OCCN2CC(CF)C2)cc1`, the IC50 in series [1] is above 6250 nM; in series [4], 1020 nM; in [5] it was 3880 nM. Besides, the selectivity ratio in [2] stood at 7; in series [3], 27.
For `Oc1ccc2c(Oc3ccc(OCCN4CCCCC4)cc3)c(-c3ccccc3)sc2c1`, in that order: above 6250 nM, 300 nM, 670 nM, 20 and 45.
For `CC/C(=C(/c1ccc(NC(=O)N2CCN(C)CC2)cc1)c1ccc(OCCN2CCCC2)cc1)c1ccccc1`, in that order: 1060 nM, 30 nM, 750 nM, 11 and 740.
Turning to `COc1ccc2c(Oc3ccc(OCCN4CCCCC4)cc3)c(-c3ccccc3)sc2c1`, the results for the 50% inhibitory concentration (IC50) in series [1], in series [4] and in series [5] were above 6250 nM, 260 nM and 3180 nM, respectively. In addition, the selectivity ratio in [2] was 8; in [3], 88.

These data come from ChEMBL document CHEMBL4665793, “Screening and Reverse-Engineering of Estrogen Receptor Ligands as Potent Pan-Filovirus Inhibitors” (J Med Chem, 2020).
